# Patent US20210401776A1, “METHOD OF TREATING […] SYNDROMES USING FENFLURAMINE ENANTIOMERS” (ZOGENIX INTERNATIONAL LIMITED, priority 2018, published 2021)
# “Also recorded” adds a separate entry of the source.
# How the values were obtained:
# dizocilpine-treated mice [1] = assay: spontaneous alternation in the Y-maze, dizocilpine-induced amnesia model; assay type: in vivo, Male Swiss OF-1 mice
# [2] = system: homozygous scn1Lab−/− mutants; assay: epileptiform activity, open-field recordings in larval forebrain (LFP assay); assay type: in vivo, zebrafish (Danio rerio); conditions: for anti-epileptiform activity (frequency and cumulative duration of epileptiform events over 10 minutes): 50 micromolar, FIGS. 4 and 5; for LFP Assay: Table 1, 25, 59 and 100 μM, oral via embryo medium
# dizocilpine-treated mice [3] = assay: dizocilpine-induced learning deficits, statements covering both tests (Y-maze and passive avoidance); assay type: in vivo, Male Swiss OF-1 mice
# Description: Experiments were conducted to determine the dose-response effects of fenfluramine (FEN) and norfenfluramine (NOR), racemate and (+)- and (−)-isomers, in an in vivo mouse model; the dizocilpine-induced amnesia model (described below) is used to test responses to drugs acting at the sigma-1 receptor (S1R) (Maurice et al., 1994a,b; Maurice, et al., 1998, Neuroscience 83:413-428).
# The drugs were administered intraperitoneally (“ip” or “IP”) with dizocilpine (0.15 mg/kg) and tested in the spontaneous alternation test on day 1 and in the passive avoidance test on days 2-3.
# The apparatus consisted of a 2-compartment box, with one illuminated with white polyvinylchloride (PVC) walls and a transparent cover (15×20×15 cm high), one with black polyvinylchloride walls and cover (15×20×15 cm high), and a grid floor. A guillotine door separated each compartment. A 60 W lamp was positioned 40 cm above the apparatus lit the white compartment during the experimental period. Scrambled foot shocks (0.3 mA for 3 s) were delivered to the grid floor using a shock generator scrambler (Lafayette Instruments, Lafayette, Mass., USA). The guillotine door was initially closed during the training session. Each mouse was placed into the white compartment. After 5 s, the door was raised. When the mouse entered the darkened compartment and placed all its paws on the grid floor, the door was gently closed and the 3-scrambled foot shock was delivered for 3 s. The step-through latency, i.e., the latency spent to enter the dark compartment, and the level of sensitivity to the shock were recorded. The latter was evaluated as: 0=no sign; 1=flinching reactions; 2=flinching and vocalization reactions. The retention test was carried out 24 h after training. Each mouse was placed again into the white compartment. After 5 s, the door was raised. The step-through latency was recorded up to 300 s. Animals entered the darkened compartment or were gently pushed into it and the escape latency, i.e., the time spent to return into the white compartment, was also measured up to 300 s. Results were expressed as median and interquartile (25%-75%) range.
# The Y-maze is made of grey PVC. Each arm is 40 cm long, 13 cm high, 3 cm wide at the bottom, 10 cm wide at the top, and converged at an equal angle. Each mouse was placed at the end of one arm and allowed to move freely through the maze during an 8-min session. The series of arm entries, including possible returns into the same arm, were checked visually. An alternation was defined as entries into all three arms on consecutive occasions. The number of maximum alternations was therefore the total number of arm entries minus two and the percentage of alternation was calculated as: actual alternations/maximum alternations)×100. Parameters included the percentage of alternation (memory index) and total number of arm entries (exploration index).
# [4] = system: WT scn1Lab+/+ zebrafish larvae; assay: maximal tolerated concentration (MTC); assay type: in vivo, zebrafish (Danio rerio); conditions: no signs of toxicity in 12 out of 12 larvae within 48 hours of exposure
# Description: To evaluate the maximal tolerated concentration (MTC) of each compound, 6 dpf-old WT scn1Lab+^+/+ zebrafish larvae were incubated in a 96-well plate (tissue culture plate, flat bottom, FALCON®, USA) with different concentrations of compound or VHC at 28° C. on a 14/10 hour light/dark cycle under standard aquaculture conditions (medium is replenished daily). Each larva was individually checked under the microscope during a period of 48 hours for the following signs of toxicity: decreased or no touch response upon a light touch of the tail, loss of posture, body deformation, edema, changes in heart rate or circulation and death. […] MTC was determined as 100 micromolar (μM) for (+)-fenfluramine and both norfenfluramine enantiomers. A MTC of 50 μM was determined for (−)-fenfluramine.
# [5] = in vivo; cited from earlier work
# [6] = system: homozygous scn1Lab−/− mutants; assay: zebrafish locomotor assay (total distance in large movements, lardist); assay type: in vivo, zebrafish (Danio rerio); conditions: for reduction in seizure behavior: fixed concentration, FIG. 3
# From the text: (Baraban et al, 2013). Additional phenotypes of these mutants include: abnormal optokinetic response (OKR; 5 dpf); darkened pigmentation; death by 14 dpf; spontaneous seizure-like activity; abnormal (forebrain electrographic activity (3-7 dpf); seizure activity; lower levels of serotonin in scn1lab^−/− head homogenates at 7 dpf; zebrafish express orthologs of human serotonin (5HT) receptor subtypes at 5 dpf; nighttime hyperactivity (5 dpf); in open field-increased thigmotaxis. decreased movement (at 5 dpf); no differences in GABAergic neurons compared to wild type (5 dpf); 5-HT2a (hitr2aa/b) and S-HT2c; (htr2c11) orthologs expressed in larval heads in wild-type and scn1lab−/− mutants and in adult wild-type brains.
# To assay the locomotor activity of homozygous scn1Lab−/− mutants and control WT scn1Lab+/+, zebrafish larvae were placed one larva per well in a 96-well plate in 100 μL of embryo medium from 4 to 8 days post-fertilization (dpf). Each day the larvae are tracked in an automated tracking device (ZebraBox™ apparatus; Viewpoint, Lyon, France) for 10 min after 30 min habituation (100-second integration interval). All recordings were performed at the same time during daytime period. The total distance in large movements was recorded and quantified using ZebraLab™ software (Viewpoint, Lyon, France). Data was pooled together from at least three independent experiments with at least 24 larvae per condition.
# Scn1Lab^−/− mutants and WT scn1Lab+/+ larvae are arrayed in the same plate and treated at 6 days post fertilization (dpf) with the test compounds (25 μM), or VHC in individual wells of a 96-well plate. After incubation at 28° C. on a 14/10 hour light/dark cycle and 30-min chamber habituation 6 and 7 dpf larvae are tracked for locomotor activity for 10 min (100-second integration interval) under dark conditions. An incubation time of 1.5 hours is further referred to as short treatment (6 dpf). Furthermore, these larvae are analyzed after more than 22 hours incubation (7 dpf), i.e. long treatment. The total locomotor activity is quantified using the parameter lardist and plotted in cm. Data for each compound is pooled together from multiple independent experiments with at least 9 larvae per treatment condition.
# dizocilpine-treated mice [7] = assay: step-through passive avoidance, dizocilpine-induced amnesia model; assay type: in vivo, Male Swiss OF-1 mice
structure (smiles),measurement,setting,value
"CCN[C@@H](C)Cc1cccc(C(F)(F)F)c1 [(+)-Fenfluramine, (2S)-N-ethyl-1-[3-(trifluoromethyl)phenyl]propan-2-amine]",PP (%),"dizocilpine-treated mice [1]; Table 3 Y-Maze, drug alone 0.1 mg/kg IP",1.3 ± 7.9%
same,PP (%),"dizocilpine-treated mice [1]; Table 3 Y-Maze, drug alone 0.3 mg/kg IP",37.9 ± 9.4 ^2%
same,PP (%),"dizocilpine-treated mice [1]; Table 5 YMT, drug alone 0.1 mg/kg ip",8.68 ± 8.7%
same,PP (%),"dizocilpine-treated mice [1]; Table 5 YMT, drug alone 0.3 mg/kg ip",40.2 ± 11.3^3%
same,PP (%),"dizocilpine-treated mice [1]; Table 6 YMT, drug alone 0.1 mg/kg ip",0.4 ± 11.5%
same,PP (%),"dizocilpine-treated mice [1]; Table 6 YMT, drug alone 0.3 mg/kg ip",46.7 ± 8.9 ^3%
same,anti-epileptiform activity (frequency and cumulative duration of epileptiform events over 10 minutes),[2],comparable
same,LFP Assay,[2],Most effective in reducing spikes; also recorded: Normal dose-response; higher
same,behavior in vivo at S1R,"dizocilpine-treated mice [3]; mouse, in vivo",behaved in vivo as S1R positive modulators
same,maximum tolerated concentration (MTC),[4],100 µM
same,mean elimination half-life,[5],19 h
same,Conclusions,"[6]; Table 1, locomotor and LFP assays",(+)-FFA is more effective than racemic FFA
same,antiseizure activity in the zebrafish locomotor assay,[6]; scn1Lab−/− mutants,more efficacious than (−)-fenfluramine
same,reduction in seizure behavior,[6]; scn1Lab−/− mutants,84%
same,potency in treating symptoms of epilepsy compared to levofenfluramine,"[6]; zebrafish, in vivo",approximately twice
same,PP (%),"dizocilpine-treated mice [7]; Table 3 StepThrough/PassiveAvoidance, drug alone 0.1 mg/kg IP",9.0 ± 15.8%
same,PP (%),"dizocilpine-treated mice [7]; Table 3 StepThrough/PassiveAvoidance, drug alone 0.3 mg/kg IP",24.8 ± 14.9 ^4%
same,PP (%),"dizocilpine-treated mice [7]; Table 5 STPA, drug alone 0.1 mg/kg ip",11.6 ± 13.6%
same,PP (%),"dizocilpine-treated mice [7]; Table 5 STPA, drug alone 0.3 mg/kg ip",35.2 ± 14.2^6%
same,PP (%),"dizocilpine-treated mice [7]; Table 6 STPA, drug alone 0.1 mg/kg ip",15.6 ± 17.3%
same,PP (%),"dizocilpine-treated mice [7]; Table 6 STPA, drug alone 0.3 mg/kg ip",31.9 ± 16.3 ^6%
"CCN[C@H](C)Cc1cccc(C(F)(F)F)c1 [(−)-Fenfluramine, (2R)-N-ethyl-1-[3-(trifluoromethyl)phenyl]propan-2-amine]",PP (%),"dizocilpine-treated mice [1]; Table 4 Y Maze, drug alone 0.3 mg/kg IP",3.2 ± 8.1%
same,PP (%),"dizocilpine-treated mice [1]; Table 4 Y Maze, drug alone 1 mg/kg IP",13.8 ± 10.5 ^2%
same,anti-epileptiform activity (frequency and cumulative duration of epileptiform events over 10 minutes),[2],comparable
same,LFP Assay,[2],Also reduces spikes but less; also recorded: Normal dose-response; higher
same,effect on PRE-084 efficacy,"dizocilpine-treated mice [3]; 1 mg/kg on effective doses of PRE-084 (0.3-1 mg/kg), FIG. 10 (e, f)",without effect on PRE-084 efficacy
same,effect on PRE-084 efficacy,dizocilpine-treated mice [3]; combined with PRE-084 in dizocilpine-treated mice,without any effect on PRE-084 efficacy
same,behavior as S1R antagonist,"dizocilpine-treated mice [3]; mouse, in vivo",does not behave as a S1R antagonist
same,maximum tolerated concentration (MTC),[4],50 µM
same,mean elimination half-life,[5],25 h
same,reduction in seizure behavior,[6]; scn1Lab−/− mutants,41%
same,PP (%),"dizocilpine-treated mice [7]; Table 4 StepThrough/PassiveAvoidance, drug alone 0.3 mg/kg IP",3.9 ± 8.4%
same,PP (%),"dizocilpine-treated mice [7]; Table 4 StepThrough/PassiveAvoidance, drug alone 1 mg/kg IP",7.3 ± 13.8 ^4%
